Data reported in patent publication US12077503B2, “Substituted cyclic amides and their use as herbicides” (FMC CORPORATION, priority 2015, dated 2024).

How the values were obtained:
Test in all cases: Test C preemergence
Format in all cases: in vivo
[1] = system: velvetleaf (Abutilon theophrasti); details: for Plant response rating, Velvetleaf: scale 0 to 100, 0 no effect, 100 complete control
Summary of the method: (§1)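 Herbicidal effect, applied preemergence to sown seeds or postemergence to 1- to 4-leaf plants, was scored visually 13 to 15 d after application, 0 to 100 versus controls.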

[2] = system: nutsedge, yellow (yellow nutsedge, Cyperus esculentus); details: for Plant response rating, Nutsedge, Yellow: scale 0 to 100, 0 no effect, 100 complete control
Summary of the method: as §1

[3] = system: blackgrass (Alopecurus myosuroides); details: for Plant response rating, Blackgrass: scale 0 to 100, 0 no effect, 100 complete control
Summary of the method: as §1

[4] = system: ryegrass, Italian (Italian ryegrass, Lolium multiflorum); details: for Plant response rating, Ryegrass, Italian: scale 0 to 100, 0 no effect, 100 complete control
Summary of the method: as §1

[5] = system: lambsquarters (Chenopodium album); details: for Plant response rating, Lambsquarters: scale 0 to 100, 0 no effect, 100 complete control
Summary of the method: as §1

[6] = system: pigweed (Amaranthus retroflexus); details: for Plant response rating, Pigweed: scale 0 to 100, 0 no effect, 100 complete control
Summary of the method: as §1

[7] = system: barnyardgrass (Echinochloa crus-galli); details: for Plant response rating, Barnyardgrass: scale 0 to 100, 0 no effect, 100 complete control
Summary of the method: as §1

[8] = system: crabgrass, large (large crabgrass, Digitaria sanguinalis); details: for Plant response rating, Crabgrass, Large: scale 0 to 100, 0 no effect, 100 complete control
Summary of the method: as §1

[9] = system: Galium (catchweed bedstraw, Galium aparine); details: for Plant response rating, Galium: scale 0 to 100, 0 no effect, 100 complete control
Summary of the method: as §1

[10] = system: foxtail, giant (giant foxtail, Setaria faberii); details: for Plant response rating, Foxtail, Giant: scale 0 to 100, 0 no effect, 100 complete control
Summary of the method: as §1

corn (Zea mays) = details: for Plant response rating, Corn: scale 0 to 100, 0 no effect, 100 complete control
Summary of the method: as §1

[11] = system: johnsongrass (Sorghum halepense); details: for Plant response rating, Johnsongrass: scale 0 to 100, 0 no effect, 100 complete control
Summary of the method: as §1

[12] = system: morningglory (Ipomoea coccinea); details: for Plant response rating, Morningglory: scale 0 to 100, 0 no effect, 100 complete control
Summary of the method: as §1

[13] = system: wheat (winter wheat, Triticum aestivum); details: for Plant response rating, Wheat: scale 0 to 100, 0 no effect, 100 complete control
Summary of the method: as §1

[14] = system: waterhemp (common waterhemp, Amaranthus rudis); details: for Plant response rating, Waterhemp: scale 0 to 100, 0 no effect, 100 complete control
Summary of the method: as §1

soybean (Glycine max) = details: for Plant response rating, Soybean: scale 0 to 100, 0 no effect, 100 complete control
Summary of the method: as §1

[15] = system: oilseed rape (Brassica napus); details: for Plant response rating, Oilseed Rape: scale 0 to 100, 0 no effect, 100 complete control
Summary of the method: as §1

[16] = 31 g ai/ha, 0 is no effect, 100 is complete control

## O=C1NCC(c2ccc3c(c2)OC(F)(F)O3)C1C(=O)Nc1cccc(F)c1F (centres unmarked) [Compound 635]
[1]; [16]
  Plant response rating (scale of 0 to 100), Velvetleaf: 0
[1]; 62 g ai/ha
  Plant response rating, Velvetleaf: 10
[1]; 125 g ai/ha
  Plant response rating, Velvetleaf: 15
[1]; 250 g ai/ha
  Plant response rating, Velvetleaf: 40
[2]; [16]
  Plant response rating (scale of 0 to 100), Nutsedge, Yellow: 0
[2]; 62 g ai/ha
  Plant response rating, Nutsedge, Yellow: 0
[2]; 125 g ai/ha
  Plant response rating, Nutsedge, Yellow: 0
[2]; 250 g ai/ha
  Plant response rating, Nutsedge, Yellow: 25
[3]; [16]
  Plant response rating (scale of 0 to 100), Blackgrass: 30
[3]; 62 g ai/ha
  Plant response rating, Blackgrass: 60
[3]; 125 g ai/ha
  Plant response rating, Blackgrass: 70
[3]; 250 g ai/ha
  Plant response rating, Blackgrass: 90
[4]; [16]
  Plant response rating (scale of 0 to 100), Ryegrass, Italian: 0
[4]; 62 g ai/ha
  Plant response rating, Ryegrass, Italian: 5
[4]; 125 g ai/ha
  Plant response rating, Ryegrass, Italian: 20
[4]; 250 g ai/ha
  Plant response rating, Ryegrass, Italian: 40
[5]; [16]
  Plant response rating (scale of 0 to 100), Lambsquarters: 40
[5]; 62 g ai/ha
  Plant response rating, Lambsquarters: 40
[5]; 125 g ai/ha
  Plant response rating, Lambsquarters: 80
[5]; 250 g ai/ha
  Plant response rating, Lambsquarters: 85
[6]; [16]
  Plant response rating (scale of 0 to 100), Pigweed: 70
[6]; 62 g ai/ha
  Plant response rating, Pigweed: 70
[6]; 125 g ai/ha
  Plant response rating, Pigweed: 85
[6]; 250 g ai/ha
  Plant response rating, Pigweed: 85
[7]; [16]
  Plant response rating (scale of 0 to 100), Barnyardgrass: 85
[7]; 62 g ai/ha
  Plant response rating, Barnyardgrass: 90
[7]; 125 g ai/ha
  Plant response rating, Barnyardgrass: 95
[7]; 250 g ai/ha
  Plant response rating, Barnyardgrass: 95
[8]; [16]
  Plant response rating (scale of 0 to 100), Crabgrass, Large: 90
[8]; 62 g ai/ha
  Plant response rating, Crabgrass, Large: 95
[8]; 125 g ai/ha
  Plant response rating, Crabgrass, Large: 95
[8]; 250 g ai/ha
  Plant response rating, Crabgrass, Large: 98
[9]; [16]
  Plant response rating (scale of 0 to 100), Galium: 5
[9]; 62 g ai/ha
  Plant response rating, Galium: 5
[9]; 125 g ai/ha
  Plant response rating, Galium: 80
[9]; 250 g ai/ha
  Plant response rating, Galium: 80
[10]; [16]
  Plant response rating (scale of 0 to 100), Foxtail, Giant: 85
[10]; 62 g ai/ha
  Plant response rating, Foxtail, Giant: 90
[10]; 125 g ai/ha
  Plant response rating, Foxtail, Giant: 95
[10]; 250 g ai/ha
  Plant response rating, Foxtail, Giant: 95
Corn (Zea mays); [16]
  Plant response rating (scale of 0 to 100), Corn: 0
Corn (Zea mays); 62 g ai/ha
  Plant response rating, Corn: 70
Corn (Zea mays); 125 g ai/ha
  Plant response rating, Corn: 75
Corn (Zea mays); 250 g ai/ha
  Plant response rating, Corn: 85
[11]; [16]
  Plant response rating (scale of 0 to 100), Johnsongrass: 25
[11]; 62 g ai/ha
  Plant response rating, Johnsongrass: 75
[11]; 125 g ai/ha
  Plant response rating, Johnsongrass: 65
[11]; 250 g ai/ha
  Plant response rating, Johnsongrass: 85
[12]; [16]
  Plant response rating (scale of 0 to 100), Morningglory: 0
[12]; 62 g ai/ha
  Plant response rating, Morningglory: 25
[12]; 125 g ai/ha
  Plant response rating, Morningglory: 30
[12]; 250 g ai/ha
  Plant response rating, Morningglory: 50
[13]; [16]
  Plant response rating (scale of 0 to 100), Wheat: 0
[13]; 62 g ai/ha
  Plant response rating, Wheat: 0
[13]; 125 g ai/ha
  Plant response rating, Wheat: 10
[13]; 250 g ai/ha
  Plant response rating, Wheat: 65
[14]; [16]
  Plant response rating (scale of 0 to 100), Waterhemp: 75
[14]; 62 g ai/ha
  Plant response rating, Waterhemp: 80
[14]; 125 g ai/ha
  Plant response rating, Waterhemp: 85
[14]; 250 g ai/ha
  Plant response rating, Waterhemp: 85
Soybean (Glycine max); [16]
  Plant response rating (scale of 0 to 100), Soybean: 20
Soybean (Glycine max); 62 g ai/ha
  Plant response rating, Soybean: 85
Soybean (Glycine max); 125 g ai/ha
  Plant response rating, Soybean: 5
Soybean (Glycine max); 250 g ai/ha
  Plant response rating, Soybean: 60
[15]; [16]
  Plant response rating (scale of 0 to 100), Oilseed Rape: 25
[15]; 62 g ai/ha
  Plant response rating, Oilseed Rape: 50
[15]; 125 g ai/ha
  Plant response rating, Oilseed Rape: 90
[15]; 250 g ai/ha
  Plant response rating, Oilseed Rape: 90
